Experimental data reported in ChEMBL document CHEMBL4507268 (2021).

Key:
Conditions in all cases: Compound concentration 1.0 uM
[1] = target: T1, Aurora kinase C (Homo sapiens) (UniProt Q9UQB9)
T1 sequence (whole entry): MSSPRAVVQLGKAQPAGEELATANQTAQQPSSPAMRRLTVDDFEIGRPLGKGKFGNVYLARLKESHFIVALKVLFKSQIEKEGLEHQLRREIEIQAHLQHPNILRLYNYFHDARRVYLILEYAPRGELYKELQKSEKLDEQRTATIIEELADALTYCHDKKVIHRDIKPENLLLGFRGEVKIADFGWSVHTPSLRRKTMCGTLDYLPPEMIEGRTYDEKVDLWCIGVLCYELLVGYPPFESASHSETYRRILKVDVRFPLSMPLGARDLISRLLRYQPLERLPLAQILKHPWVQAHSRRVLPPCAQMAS

[2] = target: Tyrosine-protein kinase BTK (Homo sapiens) (UniProt Q06187)
Tyrosine-protein kinase BTK (Homo sapiens), sequence (Q06187 whole entry): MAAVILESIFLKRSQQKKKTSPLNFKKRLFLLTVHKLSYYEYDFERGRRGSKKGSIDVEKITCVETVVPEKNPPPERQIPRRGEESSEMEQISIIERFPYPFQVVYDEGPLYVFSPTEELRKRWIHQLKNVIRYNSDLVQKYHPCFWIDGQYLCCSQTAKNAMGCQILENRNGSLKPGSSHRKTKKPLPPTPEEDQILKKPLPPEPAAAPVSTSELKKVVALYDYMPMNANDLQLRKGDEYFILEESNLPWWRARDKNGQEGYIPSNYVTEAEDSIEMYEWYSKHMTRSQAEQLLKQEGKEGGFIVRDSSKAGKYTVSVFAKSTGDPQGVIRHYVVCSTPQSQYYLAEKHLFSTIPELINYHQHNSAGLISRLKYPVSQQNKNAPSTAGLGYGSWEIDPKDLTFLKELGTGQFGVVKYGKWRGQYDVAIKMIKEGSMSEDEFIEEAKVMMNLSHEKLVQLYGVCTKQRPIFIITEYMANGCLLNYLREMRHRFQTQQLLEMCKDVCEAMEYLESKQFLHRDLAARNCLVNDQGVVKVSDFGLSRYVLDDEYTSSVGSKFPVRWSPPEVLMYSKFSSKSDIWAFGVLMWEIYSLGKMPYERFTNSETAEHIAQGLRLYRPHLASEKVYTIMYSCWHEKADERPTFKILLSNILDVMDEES

[3] = target: Serine/threonine-protein kinase B-raf (Homo sapiens) (UniProt P15056)
Serine/threonine-protein kinase B-raf (Homo sapiens), sequence (P15056 whole entry): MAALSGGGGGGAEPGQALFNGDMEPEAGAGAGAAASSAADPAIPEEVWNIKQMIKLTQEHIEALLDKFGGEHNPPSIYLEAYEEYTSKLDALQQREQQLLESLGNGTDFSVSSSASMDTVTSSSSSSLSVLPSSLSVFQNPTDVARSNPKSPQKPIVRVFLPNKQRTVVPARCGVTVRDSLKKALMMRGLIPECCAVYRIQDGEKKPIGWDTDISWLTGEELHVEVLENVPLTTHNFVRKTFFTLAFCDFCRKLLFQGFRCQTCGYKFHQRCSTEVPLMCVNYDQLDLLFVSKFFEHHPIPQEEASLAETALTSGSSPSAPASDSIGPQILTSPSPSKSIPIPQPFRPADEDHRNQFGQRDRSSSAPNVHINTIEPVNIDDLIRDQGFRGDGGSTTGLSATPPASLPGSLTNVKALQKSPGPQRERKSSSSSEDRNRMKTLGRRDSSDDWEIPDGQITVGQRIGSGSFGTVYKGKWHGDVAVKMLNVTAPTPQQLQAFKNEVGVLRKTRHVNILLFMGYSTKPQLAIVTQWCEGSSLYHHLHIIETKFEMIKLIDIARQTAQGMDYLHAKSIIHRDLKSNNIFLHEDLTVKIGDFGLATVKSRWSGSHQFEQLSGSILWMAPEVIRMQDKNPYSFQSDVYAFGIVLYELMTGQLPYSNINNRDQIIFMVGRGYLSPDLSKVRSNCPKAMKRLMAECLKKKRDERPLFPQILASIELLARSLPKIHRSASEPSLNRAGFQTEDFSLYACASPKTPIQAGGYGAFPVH

[4] = target: T2, Serine/threonine-protein kinase NLK (Homo sapiens) (UniProt Q9UBE8)
T2 sequence (whole entry): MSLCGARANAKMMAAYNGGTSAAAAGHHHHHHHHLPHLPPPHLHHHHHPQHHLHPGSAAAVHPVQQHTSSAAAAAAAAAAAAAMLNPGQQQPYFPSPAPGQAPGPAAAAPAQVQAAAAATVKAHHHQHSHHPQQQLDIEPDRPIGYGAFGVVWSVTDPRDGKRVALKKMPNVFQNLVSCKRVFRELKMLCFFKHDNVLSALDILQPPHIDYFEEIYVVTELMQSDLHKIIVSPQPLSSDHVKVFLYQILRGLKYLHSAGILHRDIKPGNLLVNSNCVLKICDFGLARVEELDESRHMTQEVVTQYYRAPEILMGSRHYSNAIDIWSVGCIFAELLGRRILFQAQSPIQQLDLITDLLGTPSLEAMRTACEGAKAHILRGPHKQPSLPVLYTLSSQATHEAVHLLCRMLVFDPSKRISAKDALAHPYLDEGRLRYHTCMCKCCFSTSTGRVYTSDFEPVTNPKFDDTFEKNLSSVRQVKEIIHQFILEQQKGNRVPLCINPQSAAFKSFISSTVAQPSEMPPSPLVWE

[5] = target: Serine/threonine-protein kinase SIK1 (Homo sapiens) (UniProt P57059)
Serine/threonine-protein kinase SIK1 (Homo sapiens), sequence (P57059 whole entry): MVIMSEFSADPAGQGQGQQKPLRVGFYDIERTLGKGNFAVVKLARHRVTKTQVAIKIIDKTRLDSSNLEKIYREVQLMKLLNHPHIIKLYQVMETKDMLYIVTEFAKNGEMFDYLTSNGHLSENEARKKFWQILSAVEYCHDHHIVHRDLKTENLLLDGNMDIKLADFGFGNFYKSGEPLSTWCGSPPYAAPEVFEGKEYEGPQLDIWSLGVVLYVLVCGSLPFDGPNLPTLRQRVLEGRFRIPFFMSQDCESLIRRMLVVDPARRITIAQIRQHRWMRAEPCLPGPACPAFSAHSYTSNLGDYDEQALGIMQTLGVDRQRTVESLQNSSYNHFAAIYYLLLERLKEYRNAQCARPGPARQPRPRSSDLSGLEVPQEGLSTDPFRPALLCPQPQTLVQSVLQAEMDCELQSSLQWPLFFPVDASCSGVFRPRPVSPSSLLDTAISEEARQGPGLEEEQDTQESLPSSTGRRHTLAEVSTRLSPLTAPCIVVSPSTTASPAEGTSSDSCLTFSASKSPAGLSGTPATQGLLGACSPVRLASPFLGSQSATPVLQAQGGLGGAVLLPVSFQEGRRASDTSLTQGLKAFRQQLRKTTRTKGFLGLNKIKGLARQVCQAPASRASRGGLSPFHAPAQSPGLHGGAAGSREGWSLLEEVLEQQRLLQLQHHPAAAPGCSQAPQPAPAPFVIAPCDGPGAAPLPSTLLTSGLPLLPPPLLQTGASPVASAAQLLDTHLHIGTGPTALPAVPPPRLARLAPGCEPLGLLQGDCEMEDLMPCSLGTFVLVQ

[6] = target: T3, Serine/threonine-protein kinase TBK1 (Homo sapiens) (UniProt Q9UHD2)
T3 sequence (whole entry): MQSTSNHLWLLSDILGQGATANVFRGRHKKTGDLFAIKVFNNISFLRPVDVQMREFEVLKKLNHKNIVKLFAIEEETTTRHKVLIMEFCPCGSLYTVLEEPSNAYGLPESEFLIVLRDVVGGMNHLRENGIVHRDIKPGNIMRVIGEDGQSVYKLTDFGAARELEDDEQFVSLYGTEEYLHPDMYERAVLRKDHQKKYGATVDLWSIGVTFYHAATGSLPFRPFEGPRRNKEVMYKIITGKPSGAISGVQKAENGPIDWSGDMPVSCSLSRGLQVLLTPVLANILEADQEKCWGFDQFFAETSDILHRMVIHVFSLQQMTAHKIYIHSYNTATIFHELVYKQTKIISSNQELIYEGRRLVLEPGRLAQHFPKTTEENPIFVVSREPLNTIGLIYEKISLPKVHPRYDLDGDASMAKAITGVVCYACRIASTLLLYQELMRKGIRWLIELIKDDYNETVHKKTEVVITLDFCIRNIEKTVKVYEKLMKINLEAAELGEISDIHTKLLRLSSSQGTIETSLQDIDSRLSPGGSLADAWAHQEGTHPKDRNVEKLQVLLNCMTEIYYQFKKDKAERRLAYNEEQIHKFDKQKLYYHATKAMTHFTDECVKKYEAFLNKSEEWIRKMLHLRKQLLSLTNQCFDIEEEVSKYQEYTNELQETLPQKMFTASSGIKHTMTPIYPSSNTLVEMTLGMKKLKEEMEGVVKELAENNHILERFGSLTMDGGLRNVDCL

[7] = target: T4, Serine/threonine-protein kinase ULK2 (Homo sapiens) (UniProt Q8IYT8)
T4 sequence (whole entry): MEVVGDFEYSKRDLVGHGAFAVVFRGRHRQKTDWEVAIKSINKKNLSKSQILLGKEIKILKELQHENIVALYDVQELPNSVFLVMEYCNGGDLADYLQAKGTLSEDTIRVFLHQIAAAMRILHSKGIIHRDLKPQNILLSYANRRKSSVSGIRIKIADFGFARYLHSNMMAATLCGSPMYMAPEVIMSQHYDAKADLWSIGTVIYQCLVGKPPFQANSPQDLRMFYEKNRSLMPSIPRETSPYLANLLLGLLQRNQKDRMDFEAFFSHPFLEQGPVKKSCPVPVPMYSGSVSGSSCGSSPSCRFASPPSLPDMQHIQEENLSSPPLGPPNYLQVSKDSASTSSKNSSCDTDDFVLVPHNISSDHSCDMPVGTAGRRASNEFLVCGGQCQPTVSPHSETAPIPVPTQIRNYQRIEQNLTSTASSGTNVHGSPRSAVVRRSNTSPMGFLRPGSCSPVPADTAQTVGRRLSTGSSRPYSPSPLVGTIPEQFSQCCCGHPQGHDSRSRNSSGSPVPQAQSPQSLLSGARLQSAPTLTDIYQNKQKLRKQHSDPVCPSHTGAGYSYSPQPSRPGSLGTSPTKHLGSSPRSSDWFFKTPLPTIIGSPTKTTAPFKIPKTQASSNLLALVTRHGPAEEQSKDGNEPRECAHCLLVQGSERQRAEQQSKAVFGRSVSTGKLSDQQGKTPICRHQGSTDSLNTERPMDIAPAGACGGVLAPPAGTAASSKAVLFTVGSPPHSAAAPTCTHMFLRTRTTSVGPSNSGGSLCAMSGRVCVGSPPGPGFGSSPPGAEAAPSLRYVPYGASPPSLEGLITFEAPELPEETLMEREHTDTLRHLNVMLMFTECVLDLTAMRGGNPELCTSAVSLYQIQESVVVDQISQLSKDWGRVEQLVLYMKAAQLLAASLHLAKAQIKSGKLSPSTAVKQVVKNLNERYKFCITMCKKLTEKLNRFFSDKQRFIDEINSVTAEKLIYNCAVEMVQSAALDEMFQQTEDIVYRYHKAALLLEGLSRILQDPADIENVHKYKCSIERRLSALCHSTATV

Measured: % residual kinase activity

CN1CCN(c2cnc3c(C4CCN(C(=O)c5ccc(OC(F)(F)F)cc5N)CC4)ncnc3c2)CC1 [BAY-885]
inactive: [1] 95% | [2] 98% | [3] 109% | [4] 111% | [5] 99% | [6] 118% | [7] 102%
